# According to article PMC5218480 (PLoS ONE, 2017):
# System: MV-4-11 cells
# Assay: Gene expression microarray analysis (Affymetrix PrimeView) and GSEA
# Type: cell-based, human
# Design: RFU PODN (11730768_x_at) / Fold change /veh PODN (11730768_x_at) / RFU LINC00158 (11744669_a_at) / Fold change /veh LINC00158 (11744669_a_at) / RFU DUSP10 (11751237_a_at) / Fold change /veh DUSP10 (11751237_a_at) / RFU ID3 (11757404_x_at) / Fold change /veh ID3 (11757404_x_at) / RFU PLEKHG5 (11737974_s_at) / Fold change /veh PLEKHG5 (11737974_s_at) / RFU LRRC4B (11730491_at) / Fold change /veh LRRC4B (11730491_at) / RFU GIMAP4 (11747438_a_at) / Fold change /veh GIMAP4 (11747438_a_at) / RFU KRT8 (11758183_x_at) / Fold change /veh KRT8 (11758183_x_at) / RFU CNN1 (11734310_a_at) / Fold change /veh CNN1 (11734310_a_at) / RFU VPS37D (11726825_at) / Fold change /veh VPS37D (11726825_at) / RFU C10orf10 (11716522_x_at) / Fold change /veh C10orf10 (11716522_x_at) / RFU KIR2DL2 /// KIR2DL4 /// KIR2DL5A /// KIR2DL5B /// KIR2DS1 /// KIR2DS2 /// KIR2DS3 /// KIR2DS4 /// KIR3DL3 /// KIR3DL3 /// KIR3DS1 (11738374_at) / Fold change /veh KIR2DL2 /// KIR2DL4 /// KIR2DL5A /// KIR2DL5B /// KIR2DS1 /// KIR2DS2 /// KIR2DS3 /// KIR2DS4 /// KIR3DL3 /// KIR3DL3 /// KIR3DS1 (11738374_at) / RFU C1QL1 (11718748_at) / Fold change /veh C1QL1 (11718748_at) / RFU TMPRSS4 (11747572_a_at) / Fold change /veh TMPRSS4 (11747572_a_at) / RFU HAMP (11756126_x_at) / Fold change /veh HAMP (11756126_x_at) / RFU RNFT2 (11725882_a_at) / Fold change /veh RNFT2 (11725882_a_at) / RFU NR4A2 (11747474_a_at) / Fold change /veh NR4A2 (11747474_a_at) / RFU ABCC12 (11746883_a_at) / Fold change /veh ABCC12 (11746883_a_at) / RFU TMEM136 (11760407_x_at) / Fold change /veh TMEM136 (11760407_x_at) / RFU CLDN22 /// WWC2 (11732394_at) / Fold change /veh CLDN22 /// WWC2 (11732394_at) / RFU HLA-DPB1 (11760878_x_at) / Fold change /veh HLA-DPB1 (11760878_x_at) / RFU SPINT1 (11716480_a_at) / Fold change /veh SPINT1 (11716480_a_at) / RFU GAP43 (11754022_s_at) / Fold change /veh GAP43 (11754022_s_at) / RFU A4GNT (11735810_at) / Fold change /veh A4GNT (11735810_at) / RFU PRB3 (11715151_x_at) / Fold change /veh PRB3 (11715151_x_at) / RFU TUBB4B (11761932_at) / Fold change /veh TUBB4B (11761932_at) / RFU CAPN14 (11732068_a_at) / Fold change /veh CAPN14 (11732068_a_at) / RFU TMCC2 (11721928_a_at) / Fold change /veh TMCC2 (11721928_a_at) / RFU IRGQ (11745062_a_at) / Fold change /veh IRGQ (11745062_a_at) / RFU FAM174B (11720279_a_at) / Fold change /veh FAM174B (11720279_a_at) / RFU TMPRSS4 (11748680_a_at) / Fold change /veh TMPRSS4 (11748680_a_at) / RFU FAM212B (11763350_a_at) / Fold change /veh FAM212B (11763350_a_at) / RFU PLEKHG5 (11743358_a_at) / Fold change /veh PLEKHG5 (11743358_a_at) / RFU ZSCAN30 (11745921_a_at) / Fold change /veh ZSCAN30 (11745921_a_at) / RFU CMKLR1 (11741424_a_at) / Fold change /veh CMKLR1 (11741424_a_at) / RFU LOC101060620 /// MAPK8IP1 (11723275_at) / Fold change /veh LOC101060620 /// MAPK8IP1 (11723275_at) / RFU SPTSSB (11747773_x_at) / Fold change /veh SPTSSB (11747773_x_at) / RFU PRSS12 (11739890_at) / Fold change /veh PRSS12 (11739890_at) / RFU BIN1 (11741810_x_at) / Fold change /veh BIN1 (11741810_x_at) / RFU WNT11 (11732464_a_at) / Fold change /veh WNT11 (11732464_a_at) / RFU C10orf10 (11716521_a_at) / Fold change /veh C10orf10 (11716521_a_at) / RFU C5orf56 (11738089_at) / Fold change /veh C5orf56 (11738089_at) / RFU CYB561 (11721691_x_at) / Fold change /veh CYB561 (11721691_x_at) / RFU ANKRD19P (11752326_a_at) / Fold change /veh ANKRD19P (11752326_a_at) / RFU OR2T12 /// OR2T33 /// OR2T8 (11738714_s_at) / Fold change /veh OR2T12 /// OR2T33 /// OR2T8 (11738714_s_at) / RFU VCAN (11748164_a_at) / Fold change /veh VCAN (11748164_a_at) / RFU JSRP1 (11732532_at) / Fold change /veh JSRP1 (11732532_at) / RFU KRTAP10-11 (11738290_x_at) / Fold change /veh KRTAP10-11 (11738290_x_at) / RFU MYO3A (11730013_a_at) / Fold change /veh MYO3A (11730013_a_at) / RFU EBF3 (11725865_a_at) / Fold change /veh EBF3 (11725865_a_at) / RFU CAMK2N1 (11719241_x_at) / Fold change /veh CAMK2N1 (11719241_x_at) / RFU C5orf56 (11738088_a_at) / Fold change /veh C5orf56 (11738088_a_at) / RFU OLFML3 (11715873_a_at) / Fold change /veh OLFML3 (11715873_a_at) / RFU LOC100653217 /// NTM (11731650_a_at) / Fold change /veh LOC100653217 /// NTM (11731650_a_at) / RFU MAPK11 (11762145_a_at) / Fold change /veh MAPK11 (11762145_a_at) / RFU FIZ1 (11724087_x_at) / Fold change /veh FIZ1 (11724087_x_at) / RFU OASL (11726364_x_at) / Fold change /veh OASL (11726364_x_at) / RFU SOX15 (11748057_x_at) / Fold change /veh SOX15 (11748057_x_at) / RFU CD79A (11719716_a_at) / Fold change /veh CD79A (11719716_a_at) / RFU HIST1H1D (11736915_at) / Fold change /veh HIST1H1D (11736915_at) / RFU CASKIN2 (11723855_a_at) / Fold change /veh CASKIN2 (11723855_a_at) / RFU LOC730098 (11760151_x_at) / Fold change /veh LOC730098 (11760151_x_at) / RFU OR4N2 (11742367_at) / Fold change /veh OR4N2 (11742367_at) / RFU PRRT2 (11749266_a_at) / Fold change /veh PRRT2 (11749266_a_at) / RFU SNX32 (11753110_a_at) / Fold change /veh SNX32 (11753110_a_at) / RFU CDHR5 (11726645_a_at) / Fold change /veh CDHR5 (11726645_a_at) / RFU RCAN1 (11760418_a_at) / Fold change /veh RCAN1 (11760418_a_at) / RFU FAM167A (11723789_a_at) / Fold change /veh FAM167A (11723789_a_at) / RFU FAM26E (11764081_at) / Fold change /veh FAM26E (11764081_at) / RFU ISYNA1 (11749810_s_at) / Fold change /veh ISYNA1 (11749810_s_at) / RFU ACY1 (11761880_at) / Fold change /veh ACY1 (11761880_at) / RFU 11764098_at / Fold change /veh 11764098_at / RFU SAMD14 (11745864_x_at) / Fold change /veh SAMD14 (11745864_x_at) / RFU NPB (11741838_a_at) / Fold change /veh NPB (11741838_a_at) / RFU TMPRSS6 (11731388_a_at) / Fold change /veh TMPRSS6 (11731388_a_at) / RFU KRTAP10-2 (11738614_at) / Fold change /veh KRTAP10-2 (11738614_at) / RFU ARHGAP8 /// PRR5-ARHGAP8 (11727945_x_at) / Fold change /veh ARHGAP8 /// PRR5-ARHGAP8 (11727945_x_at) / RFU KRTAP5-7 /// NADSYN1 (11734609_at) / Fold change /veh KRTAP5-7 /// NADSYN1 (11734609_at) / RFU RASL12 (11751679_a_at) / Fold change /veh RASL12 (11751679_a_at) / RFU CDKN2B (11736163_a_at) / Fold change /veh CDKN2B (11736163_a_at) / RFU PRF1 (11729649_at) / Fold change /veh PRF1 (11729649_at) / RFU, ZNF638 /// ZNF638-IT1 / Fold change vs veh, ZNF638 /// ZNF638-IT1 / RFU, PANK3 / Fold change vs veh, PANK3 / RFU, SH3YL1 / Fold change vs veh, SH3YL1 / RFU, ZEB2 / Fold change vs veh, ZEB2 / RFU, NRIP1 / Fold change vs veh, NRIP1 / RFU, PTTG1IP / Fold change vs veh, PTTG1IP / RFU, CAPN2 / Fold change vs veh, CAPN2 / RFU, MED14 / Fold change vs veh, MED14 / RFU, SNORA58 / Fold change vs veh, SNORA58 / RFU, C1orf63 / Fold change vs veh, C1orf63 / RFU, LRRFIP1 / Fold change vs veh, LRRFIP1 / RFU, NDUFAF7 / Fold change vs veh, NDUFAF7 / RFU, SLC12A2 / Fold change vs veh, SLC12A2 / RFU, IBTK / Fold change vs veh, IBTK / RFU, ESF1 / Fold change vs veh, ESF1 / Fold change vs veh, TMEM50B / RFU, TAOK1 / Fold change vs veh, TAOK1 / RFU, ACBD3 / Fold change vs veh, ACBD3 / RFU, TMA16 / Fold change vs veh, TMA16 / RFU, RWDD3 / Fold change vs veh, RWDD3 / RFU, BCAT1 / Fold change vs veh, BCAT1 / RFU, EDEM3 / Fold change vs veh, EDEM3 / RFU, TMEM33 / Fold change vs veh, TMEM33 / RFU, WDR75 / Fold change vs veh, WDR75 / RFU, AHCTF1 / Fold change vs veh, AHCTF1 / RFU, TFRC / Fold change vs veh, TFRC / RFU, ZDHHC17 / Fold change vs veh, ZDHHC17 / RFU, NOM1 / Fold change vs veh, NOM1 / RFU, ARL8B / Fold change vs veh, ARL8B / RFU, ZBTB11 / Fold change vs veh, ZBTB11 / RFU, TAMM41 / Fold change vs veh, TAMM41 / RFU, KIAA1704 /// LOC100996395 / Fold change vs veh, KIAA1704 /// LOC100996395 / RFU, ING1 / Fold change vs veh, ING1 / RFU, TRMT61B / Fold change vs veh, TRMT61B / RFU, FUBP3 / Fold change vs veh, FUBP3 / RFU, TP53 / Fold change vs veh, TP53 / RFU, TNKS2 / Fold change vs veh, TNKS2 / RFU, ZFP14 / Fold change vs veh, ZFP14 / RFU, ACTR2 / Fold change vs veh, ACTR2 / RFU, PPP3R1 / Fold change vs veh, PPP3R1 / RFU, PIK3R1 / Fold change vs veh, PIK3R1 / RFU, HNRNPA1 / Fold change vs veh, HNRNPA1 / RFU, RNF170 / Fold change vs veh, RNF170 / RFU, ZNF28 / Fold change vs veh, ZNF28 / RFU, RNGTT / Fold change vs veh, RNGTT / RFU, OGT / Fold change vs veh, OGT / RFU, BRD1 / Fold change vs veh, BRD1 / RFU, MARS / Fold change vs veh, MARS / RFU, ZNF655 / Fold change vs veh, ZNF655 / RFU, FAHD1 / Fold change vs veh, FAHD1 / RFU, BDP1 / Fold change vs veh, BDP1 / RFU, LRRCC1 / Fold change vs veh, LRRCC1 / RFU, ARID1A / Fold change vs veh, ARID1A / RFU, ZNF146 / Fold change vs veh, ZNF146 / RFU, ZNF330 / Fold change vs veh, ZNF330 / RFU, GPN3 / Fold change vs veh, GPN3 / RFU, C9orf123 / Fold change vs veh, C9orf123 / RFU, N4BP2L2 / Fold change vs veh, N4BP2L2 / RFU, ARFIP1 / Fold change vs veh, ARFIP1 / RFU, FAM179B / Fold change vs veh, FAM179B / RFU, BCL10 / Fold change vs veh, BCL10 / RFU, UHRF1BP1L / Fold change vs veh, UHRF1BP1L / RFU, BET1 / Fold change vs veh, BET1 / RFU, CNOT2 / Fold change vs veh, CNOT2 / RFU, ZNF268 / Fold change vs veh, ZNF268 / Fold change vs veh, ZNF507 / RFU, DGCR2 / Fold change vs veh, DGCR2 / RFU, WDSUB1 / Fold change vs veh, WDSUB1 / Fold change vs veh, HSP90B1 /// MIR3652 / RFU, ADSS / Fold change vs veh, ADSS / RFU, GK / Fold change vs veh, GK / RFU, ZNF148 / Fold change vs veh, ZNF148 / RFU, TAF9 / Fold change vs veh, TAF9 / RFU, SLC1A5 / Fold change vs veh, SLC1A5 / RFU, SLMO2 / Fold change vs veh, SLMO2 / RFU, ABCC4 / Fold change vs veh, ABCC4 / RFU, LOC101060439 /// RAP1B / Fold change vs veh, LOC101060439 /// RAP1B / RFU, RFX7 / Fold change vs veh, RFX7 / RFU, GTPBP10 / Fold change vs veh, GTPBP10 / RFU, CNEP1R1 / Fold change vs veh, CNEP1R1 / RFU, BIVM-ERCC5 /// ERCC5 / Fold change vs veh, BIVM-ERCC5 /// ERCC5 / RFU, ILF3 / Fold change vs veh, ILF3 / RFU 11762660_at / Fold change /veh 11762660_at / RFU VCAN (11757783_s_at) / Fold change /veh VCAN (11757783_s_at) / RFU DDX43 (11728927_at) / Fold change /veh DDX43 (11728927_at) / RFU KRT8 (11758188_x_at) / Fold change /veh KRT8 (11758188_x_at) / RFU NKD1 (11759106_at) / Fold change /veh NKD1 (11759106_at) / RFU SRD5A1 (11742802_a_at) / Fold change /veh SRD5A1 (11742802_a_at) / RFU TPSAB1 /// TPSB2 (11721975_s_at) / Fold change /veh TPSAB1 /// TPSB2 (11721975_s_at) / RFU GSTM3 (11746129_a_at) / Fold change /veh GSTM3 (11746129_a_at) / RFU IL23R (11737362_x_at) / Fold change /veh IL23R (11737362_x_at) / RFU TMEM51 (11727254_a_at) / Fold change /veh TMEM51 (11727254_a_at) / RFU PIWIL2 (11732686_x_at) / Fold change /veh PIWIL2 (11732686_x_at) / RFU ORM1 (11744905_x_at) / Fold change /veh ORM1 (11744905_x_at) / RFU CCDC152 (11743942_at) / Fold change /veh CCDC152 (11743942_at) / RFU ECM1 (11717891_a_at) / Fold change /veh ECM1 (11717891_a_at) / RFU IL23R (11748794_a_at) / Fold change /veh IL23R (11748794_a_at) / RFU TNFAIP8L3 (11732012_x_at) / Fold change /veh TNFAIP8L3 (11732012_x_at) / RFU MBOAT4 (11741988_at) / Fold change /veh MBOAT4 (11741988_at) / RFU 11764193_at / Fold change /veh 11764193_at / RFU TMEM53 (11763286_at) / Fold change /veh TMEM53 (11763286_at) / RFU MAGEB2 (11727129_at) / Fold change /veh MAGEB2 (11727129_at) / RFU TMEM200A (11744735_a_at) / Fold change /veh TMEM200A (11744735_a_at) / RFU CCDC152 (11751479_a_at) / Fold change /veh CCDC152 (11751479_a_at) / RFU FAM211A (11726209_a_at) / Fold change /veh FAM211A (11726209_a_at) / RFU RGS16 (11746705_a_at) / Fold change /veh RGS16 (11746705_a_at) / RFU VCAN (11755009_s_at) / Fold change /veh VCAN (11755009_s_at) / RFU RHOB (11743442_s_at) / Fold change /veh RHOB (11743442_s_at) / RFU RGS16 (11720943_a_at) / Fold change /veh RGS16 (11720943_a_at) / RFU RGS16 (11720944_at) / Fold change /veh RGS16 (11720944_at) / RFU, VPS4B / Fold change vs veh, VPS4B / RFU, CREB1 / Fold change vs veh, CREB1 / RFU, DNAJC13 / Fold change vs veh, DNAJC13 / RFU, GNAQ / Fold change vs veh, GNAQ / RFU, CDK5R1 / Fold change vs veh, CDK5R1 / RFU, ZRANB3 / Fold change vs veh, ZRANB3 / RFU, CUL4A / Fold change vs veh, CUL4A / RFU, CCNY / Fold change vs veh, CCNY / RFU, UFL1 / Fold change vs veh, UFL1 / RFU, COG3 / Fold change vs veh, COG3 / RFU, DIAPH2 / Fold change vs veh, DIAPH2 / RFU, SKA2 / Fold change vs veh, SKA2 / RFU, AFF3 / Fold change vs veh, AFF3 / RFU, LMF1 / Fold change vs veh, LMF1 / RFU, IPO11 / Fold change vs veh, IPO11 / RFU, DFFB / Fold change vs veh, DFFB / RFU, FOXP1 / Fold change vs veh, FOXP1 / RFU, CARD8 / Fold change vs veh, CARD8 / RFU, STRN3 / Fold change vs veh, STRN3 / RFU, ADK / Fold change vs veh, ADK / RFU, RASSF2 / Fold change vs veh, RASSF2 / RFU, WIPF1 / Fold change vs veh, WIPF1 / RFU, LARP1B / Fold change vs veh, LARP1B / RFU, RASA1 / Fold change vs veh, RASA1 / RFU, RB1 / Fold change vs veh, RB1 / RFU, PPFIA1 / Fold change vs veh, PPFIA1 / RFU, MAT2A / Fold change vs veh, MAT2A / RFU, CCT5 / Fold change vs veh, CCT5 / RFU, WDR92 / Fold change vs veh, WDR92 / RFU, CUX1 / Fold change vs veh, CUX1 / RFU, TTC7A / Fold change vs veh, TTC7A / RFU, TMEM135 / Fold change vs veh, TMEM135 / RFU, DEPTOR / Fold change vs veh, DEPTOR / RFU, CPM / Fold change vs veh, CPM / RFU, DNAJB6 / Fold change vs veh, DNAJB6 / RFU, CACNA2D3 / Fold change vs veh, CACNA2D3 / RFU, DTX4 / Fold change vs veh, DTX4 / RFU, TFCP2 / Fold change vs veh, TFCP2 / RFU, GMCL1 /// GMCL1P1 / Fold change vs veh, GMCL1 /// GMCL1P1 / RFU, AEBP2 / Fold change vs veh, AEBP2 / RFU, SNHG1 /// SNORD22 /// SNORD25 /// SNORD26 /// SNORD27 /// SNORD28 /// SNORD29 /// SNORD31 / Fold change vs veh, SNHG1 /// SNORD22 /// SNORD25 /// SNORD26 /// SNORD27 /// SNORD28 /// SNORD29 /// SNORD31 / Fold change (Aza/veh), C12orf56 (ProbeSet 11735607_a_at) / Fold change (ACY-1035/veh), C12orf56 (ProbeSet 11735607_a_at) / Fold change (Aza/veh), FGFR1OP (ProbeSet 11751329_s_at) / Fold change (ACY-1035/veh), FGFR1OP (ProbeSet 11751329_s_at) / Fold change (Aza/veh), VPS36 (ProbeSet 11739960_a_at) / Fold change (ACY-1035/veh), VPS36 (ProbeSet 11739960_a_at) / RFU SYPL1 (11715823_x_at) / Fold change /veh SYPL1 (11715823_x_at) / RFU IGFBP7 (11715501_s_at) / Fold change /veh IGFBP7 (11715501_s_at) / RFU REEP3 (11722064_at) / Fold change /veh REEP3 (11722064_at) / RFU IGLL1 (11728026_x_at) / Fold change /veh IGLL1 (11728026_x_at): dose or concentration left out as unconfirmed
# Conditions: ProbeSet 11726661_s_at; LIST B
compound,measurement,value
Nc1ncn([C@@H]2O[C@H](CO)[C@@H](O)[C@H]2O)c(=O)n1 [azacitidine],"RFU, GPN3",248.57 RFU
